What was measured:
TGase2 [1] = biological target: T1, TGase2 (Homo sapiens, UniProt P21980); assay: In-situ TGase activity by confocal microscopy in VEGF-treated HRECs; format: cell-based; design: endogenous in cells; host or cells: human retinal endothelial cells (HRECs); settings: 10 ng/ml VEGF 2 hrs, 50 μM cystamine, 20 μM MDC, 5 μM BAPTA-AM, 1 mM NAC, 0.5 μM Trolox, p<0.001
T1 sequence (P21980 1-687): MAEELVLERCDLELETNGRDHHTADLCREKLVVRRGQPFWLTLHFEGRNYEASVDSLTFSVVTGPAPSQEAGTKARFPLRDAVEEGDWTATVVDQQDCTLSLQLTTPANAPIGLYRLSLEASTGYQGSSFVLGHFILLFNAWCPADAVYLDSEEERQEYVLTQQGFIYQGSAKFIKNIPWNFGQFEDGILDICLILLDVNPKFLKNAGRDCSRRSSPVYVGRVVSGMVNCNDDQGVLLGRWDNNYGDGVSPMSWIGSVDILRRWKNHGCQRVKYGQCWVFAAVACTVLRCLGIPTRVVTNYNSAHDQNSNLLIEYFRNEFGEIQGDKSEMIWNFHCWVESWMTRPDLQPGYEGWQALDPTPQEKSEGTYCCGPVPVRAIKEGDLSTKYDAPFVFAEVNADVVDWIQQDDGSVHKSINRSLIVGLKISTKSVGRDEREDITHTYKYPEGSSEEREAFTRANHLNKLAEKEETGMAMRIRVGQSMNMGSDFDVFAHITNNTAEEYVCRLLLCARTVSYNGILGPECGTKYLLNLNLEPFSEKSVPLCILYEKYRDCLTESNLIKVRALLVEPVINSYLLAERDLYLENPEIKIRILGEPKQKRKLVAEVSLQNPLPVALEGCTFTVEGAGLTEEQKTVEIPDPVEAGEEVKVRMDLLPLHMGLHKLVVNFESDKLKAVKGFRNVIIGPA
Description: HUVEC isolation was done by our own supply and Human retinal endothelial cells (HRECs) were purchased from the Applied Cell Biology Research Institute (Cell Systems, Kirkland, Wash.). Both respectively were grown on 2% gelatin-coated plates in a M199 medium supplemented with 20% fetal bovine serum (FBS), 3 ng/ml basic fibroblastic growth factor, 5 units/ml heparin, 100 units/ml penicillin, and 100 μg/ml streptomycin. For experiments, cells were incubated for 6 hrs in a low-serum medium supplemented with 1% FBS and antibiotics.
In-situ Tgase transamidating activity was determined via confocal microscopic assay according to a previously known procedure. In brief, cells were incubated with 1 mM 5-(biotinamido)pentylamine (BAPA) for 1 hr at 37° C., fixed with 3.7% formaldehyde in PBS for 30 min, and permeabilized with 0.2% Triton X-100 in PBS for 30 min. After incubation with a blocking solution of 2% BSA in 20 mM Tris (pH 7.6), 138 mM NaCl, and 0.1% Tween 20 for 30 min, cells were treated with Cy3-conjugated streptavidin (1:200, v/v) in the blocking solution for 1 hr. Single-cell fluorescence intensities of stained cells were determined using confocal microscopy for 10 randomly selected cells per test. TGase activities were determined by comparing average fluorescence intensities of treated cells with those of control cells (expressed as multiples thereof).
HRECs were transfected with human TGase2-specific siRNA as described previously. In brief, cells were transfected with various concentrations of human TGase2-siRNA or 100 nM control siRNA (Dharmacon, Lafayette, Colo.) using siLentFect lipid reagent (Bio-Rad Laboratories, Hercules, Calif.) according to the manufacturer's instructions. Six hours after transfection with the indicated concentrations, the medium was replaced with a fresh culture medium and the transfected cells were further incubated for 24 hrs.
A detailed description of FIGS. 1A-1F are given below. […] (A, B) HRECs were incubated with 10 ng/ml VEGF for the indicated times (A) or for 2 hrs (B) in the presence of TGase inhibitors (50 μM cystamine and 20 μM MDC), 5 μM Ca^2+ chelator BAPTA-AM, or ROS scavengers (1 mM NAC or 0.5 μM Trolox). In-situ TGase activity was determined by confocal microscopy as described in Research Design and Methods (A: Time course changes in VEGF-induced transglutaminase activation; and B: Effects of various inhibitors on VEGF-induced transglutaminase activation). (C,D) HRECs were transfected with the indicated concentrations (C) or 100 nM (D) of human TGase2-specific siRNA (TGase2 siRNA) or 100 nM control (Ctrl) siRNA. Endothelial cells were treated with 10 ng/ml VEGF and subjected to confocal microscopic determination of in-situ TGase activity (C: Dose-dependent inhibition of TGase2 expression by TGase2 siRNA, TGase2 expression being analyzed by Western blot; and D: TGase2 siRNA prevention of VEGF-induced transglutaminase activation). FIGS. 1E and 1F show the effects of various inhibitors on the elevation of intracellular Ca^2+ (E) and ROS (F). Intracellular Ca^2+ and ROS levels were determined by confocal microscopy as described in Research Design and Methods. Results are expressed as mean±SD from three independent trials (***p<0.001).

HRECs [2] = assay: Intracellular Ca2+ levels (Fluo4-AM, confocal) in HRECs; format: cell-based, human; settings: 10 ng/ml VEGF, inhibitors 30 min
Description: Cells on coverslips were co-incubated with 2 μM Fluo4-AM and various inhibitors for 30 min at 37° C. Coverslips were scanned every 10 sec in the presence of 10 ng/ml VEGF using a confocal microscope (FV-300, Olympus Tokyo, Japan). Single-cell fluorescence intensities of peaks were determined for 10 randomly selected cells per trial.

HRECs [3] = assay: Intracellular ROS generation (H2DCFDA, confocal) in HRECs; format: cell-based, human; settings: 10 ng/ml VEGF, inhibitors pretreated 30 min
Description: Intracellular ROS generation was determined using 2′,7′-dichlorodihydrofluorescein diacetate (H2DCFDA, Molecular Probes, Eugene, Oreg.) staining as previously described. Cells were pretreated with inhibitors for 30 min and co-incubated with 10 ng/ml of VEGF and 10 μM H2DCFDA in low-serum media (phenol red-free) for 10 min. Labeled cells were immediately analyzed using confocal microscopy (Fluoview-300, Olympus). Single-cell fluorescence intensities were determined for 10 randomly selected cells per test. Intracellular ROS levels were determined by comparing average fluorescence intensities of treated cells with those of control cells (expressed as multiples thereof). […] Intracellular Ca^2+ and ROS levels were determined by confocal microscopy as described in Research Design and Methods. Results are expressed as mean±SD from three independent trials (***p<0.001).

HRECs [4] = assay: Visualization of actin filaments (stress fiber formation) in HRECs; format: cell-based, human; settings: summary statement, conditions not given
Description: (§1) Actin filaments and VE-cadherin were visualized as previously described. For visualization of actin filaments, cells were treated with 10 ng/ml VEGF for 1 hr at 37° C., fixed with 3.7% formaldehyde, and permeabilized with 0.2% Triton X-100. […] For visualization of VE-cadherin, cells were preincubated with the TGase2 inhibitors for 30 min and treated with 10 ng/ml VEGF for 90 min at 37° C. Following fixation and permeabilization, cells were incubated overnight with a monoclonal anti-VE-cadherin antibody (1:200, Santa Cruz Biotechnology) at 4° C. Cells were then probed with an FITC-conjugated goat anti-mouse antibody (1:200, Sigma) and VE-cadherin was visualized using confocal microscopy. Adherens junctions are represented by histograms of VE-cadherin as indicated by dotted lines and were quantitatively analyzed using peak fluorescence intensities of the histograms at the single-cell level for 10 randomly selected cells per experiment.
(§2) (A-C) HRECs were preincubated with 50 μM cystamine (Cys) and 20 μM MDC for 30 min and treated with 10 ng/ml VEGF. Stress fibers and VE-cadherin were stained and visualized by confocal microscopy as described in Research Design and Methods (n=3) ((A) Representative images of stress fibers. Scale Bar, 30 μm. (B) Representative images of VE-cadherin. Scale Bar, 10 μm). Adherens junctions are represented by histograms of VE-cadherin as indicated by dotted lines. (C) Adherens junctions were quantitatively analyzed using the peak fluorescence intensities of the histograms at the single-cell level. The results are expressed as mean±SD from three independent trials. (D) In-vitro endothelial cell monolayer permeability assay. HRECs on inserts of Transwell® Permeable Supports were incubated with 50 μM cystamine and 20 μM MDC for 30 min and treated with 10 ng/mL VEGF for 90 min. The amount of FITC-dextran that diffused to the lower chamber was measured by a microplate spectrofluorometer (n=3) (**p<0.01).
(§3) HRECs were transfected with 100 nM human TGase2-specific siRNA (TGase2 siRNA) or 100 nM control (Ctrl) siRNA. Endothelial cells were treated with 10 ng/ml VEGF and subjected to the confocal microscopic visualization of stress fibers (A) and VE-cadherin (B), as described in Research Design and Methods (n=3). (A) TGase2 siRNA inhibition of VEGF-induced formation of stress fibers. Scale bar, 30 μm. (B) Representative images of VE-cadherin and adherens junctions represented by VE-cadherin histograms. Scale bar, 10 μm. (C) Adherens junctions were quantitatively analyzed using peak fluorescence intensities of the histograms at the single-cell level. Results are expressed as mean±SD from three independent experiments (***p<0.001).

VE-cadherin = assay: Visualization of VE-cadherin (adherens junction disruption) in HRECs; format: cell-based, human; settings: summary statement, conditions not given
Description: as §1, §2, §3

TGase2 [5] = biological target: T2, TGase2 (Mus musculus, UniProt P21981); assay: In-vivo TGase activity in retina of streptozotocin-diabetic mice; settings: diabetic mice, intravitreal 2 μl: 50 mM cystamine, 20 mM MDC, 1 μM C-peptide, 2 μM Trolox, 500 mM NAC; after 24 hrs; n=8
T2 construct: from tissue; host or cells: retina of streptozotocin-diabetic C57BL/6 mice
T2 sequence (P21981 1-686): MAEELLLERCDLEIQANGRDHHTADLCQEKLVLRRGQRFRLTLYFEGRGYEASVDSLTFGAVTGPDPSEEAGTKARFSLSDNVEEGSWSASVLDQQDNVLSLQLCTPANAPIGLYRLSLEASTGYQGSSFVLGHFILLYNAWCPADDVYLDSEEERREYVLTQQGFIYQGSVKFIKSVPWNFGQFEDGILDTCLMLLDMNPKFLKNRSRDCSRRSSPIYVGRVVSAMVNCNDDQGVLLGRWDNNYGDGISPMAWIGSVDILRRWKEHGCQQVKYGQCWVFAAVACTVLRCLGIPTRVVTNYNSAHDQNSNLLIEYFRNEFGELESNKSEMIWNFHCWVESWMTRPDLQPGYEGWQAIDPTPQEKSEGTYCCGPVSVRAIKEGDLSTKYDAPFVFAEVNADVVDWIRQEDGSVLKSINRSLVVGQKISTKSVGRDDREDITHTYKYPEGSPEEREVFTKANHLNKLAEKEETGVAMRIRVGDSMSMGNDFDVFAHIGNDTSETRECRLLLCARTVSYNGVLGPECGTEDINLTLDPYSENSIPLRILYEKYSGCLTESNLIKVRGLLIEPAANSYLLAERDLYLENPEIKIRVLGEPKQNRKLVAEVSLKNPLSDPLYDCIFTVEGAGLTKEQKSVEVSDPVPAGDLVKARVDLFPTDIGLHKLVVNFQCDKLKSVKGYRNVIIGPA
Description: Two weeks after streptozotocin injection, diabetic mice were intravitreally injected with 2 μl of TGase inhibitors (50 mM cystamine or 20 mM MDC), 1 μM C-peptide (American Peptide Company, Sunnyvale, Calif.), ROS scavengers (2 μM Trolox or 500 mM NAC), or 65 μM mouse TG2-specific siRNA (Dharmacon, Lafayette, Colo.) into one eye and an equal volume of PBS or mouse control siRNA (Dharmacon, Lafayette, Colo.) into the contralateral eye. Non-diabetic mice were also intravitreally injected with 2 μl of PBS or mouse control siRNA into the eyes. After 24 hrs for inhibitors or C-peptide or 48 hrs for mouse TGase2 siRNA, mice were subjected to measurement of in-vivo TGase activity and vascular leakage from the retina.
In vivo Tgase transamidating activity was determined in mouse retina using confocal microscopy (FIG. 5A). 24 hrs after intravitreal injection of TGase2 inhibitors and C-peptide or 48 h after the injection of mouse TGase2-specific siRNA, mice were deeply anaesthetized using 2.5% avertin and 48 μl of 100 mM BAPA was injected into the left ventricle. BAPA was allowed to circulate for 10 min and mice were sacrificed by cervical dislocation. Eyes were then enucleated and immediately fixed with 4% paraformaldehyde for 45 min. Retinas were dissected in the Maltese cross-configuration and permeabilized with 0.2% Triton X-100 in PBS for 30 min at RT. After incubation with the blocking solution for 30 min, retinas were treated with FITC-conjugated streptavidin (1:200, v/v) in the blocking solution for 1 hr at RT. The superficial vessels of stained retinas (n=8 per group) were observed using confocal microscopy and fluorescence intensities were analyzed using Fluoview software (FV-300). In-vivo TGase activities were quantitatively determined using fluorescence intensities in the retinas of normal and diabetic mice.
Six-week-old male C57BL/6 mice were obtained from KOATECH (Pyeongtaek, Korea). TGase2^−/− mice (C57BL/6) were prepared by disrupting exons 5 and 6 of TGase2 by homologous recombination, as previously described. Diabetic mice were generated by a single intraperitoneal injection of streptozotocin (150 mg/kg body weight, Sigma) freshly prepared in 100 mM citrate buffer (pH 4.5) as previously described. Mice with non-fasting blood glucose levels greater than 19 mM, polyuria and glucosuria were considered diabetic. Experiments were performed in strict accordance with the guidelines of the Institutional Animal Care and Use Ethics Committee of Kangwon National University.
To validate the in-vitro findings, the present inventors further investigated the role of TGase2 in hyperglycemia-induced vascular leakage in the retina of diabetic mice. For this study, the present inventors designed an in-vivo TGase activity assay using confocal microscopy in mouse retina (FIG. 5A). In this assay, BAPA, which is a TGase2 pseudo substrate, was systemically delivered into the blood circulatory system by injection into the left ventricles of mice, and biotinylated proteins in the retinas were probed with FITC-conjugated streptavidin.
(A) A schematic diagram for determining TGase2 activity in mouse retina. (B,C) Streptozotocin-induced diabetic mice were intravitreally injected with 2 μl cystamine (diabetic+Cys), MDC (diabetic+MDC), C-peptide (diabetic+C-pep), Trolox (diabetic+Trolox) or NAC (diabetic+NAC) into one eye and an equal volume of PBS into the contralateral eye (diabetic). Non-diabetic mice were also intravitreally injected with 2 μl PBS into both eyes (normal). TGase2 activities in retinas were visualized by confocal microscopy and quantitatively determined as described in Research Design and Methods (n=8 per group). (B) Representative TGase activity images in the retinas. […] Scale bar, […]. (C) In-vivo TGase activities were quantified by measuring the fluorescence intensity in retinas (***p<0.001). […]

Row | Molecule | VEGF-induced TGase activation (in-situ TGase activity) (TGase2 [1]) | VEGF-elevated intracellular Ca2+ levels (HRECs [2]) | VEGF-induced intracellular ROS generation (HRECs [3]) | VEGF-induced stress fiber formation (HRECs [4]) | VEGF-induced VE-cadherin disruption (VE-cadherin) | hyperglycemia-induced TGase2 activation in diabetic retina (in-vivo TGase activity) (TGase2 [5])
1 | CC(=O)N[C@@H](CS)C(=O)O [NAC, N-acetyl cysteine] | inhibited | – | – | – | – | –
2 | CC(=O)OCOC(=O)CN(CC(=O)OCOC(C)=O)c1ccccc1OCCOc1ccccc1N(CC(=O)OCOC(C)=O)CC(=O)OCOC(C)=O [BAPTA-AM] | inhibited | inhibited | significantly inhibited | – | – | –
3 | C-peptide: 31-amino acid peptide, EAEDLQVGQVELGGGPGAGSLQPLALEGSLQ (SEQ ID NO. 2), co-secreted with insulin by pancreatic β cells (listed as Homo sapiens) | – | – | – | prevented | prevented | blocked
4 | NCCO [ethanolamine] | – | – | – | prevented | prevented | –
